Data taken from patent US20090088412A1, “COMPOSITION FOR TREATING CANCER CELLS AND PREPARATION METHOD THEREOF” (KAOHSIUNG MEDICAL UNIVERSITY, priority 2007, published 2009).
Values after ≈ are worked out from the molar mass of the structure shown.

Key:
MDA-MB-231 = test: MTT cytotoxicity test, MDA-MB-231; format: cell-based, human; settings: 72 hours; for IC50 MDA-MB-231: breast cancer cell line
Method: (§1) The bioactivities of the 25 new withanolide compounds of the present invention are further studied. The bioactivities are measured by examining cytotoxicity tests with 5 human cancer cell lines, including MCF-7 and MDA-MB-231 (which are the breast cancer cell lines), Hep G2 and Hep 3B (which are the liver cancer cell line), and A549 (which is lung cancer cell line). In addition, a normal human lung cell line (MRC-5) is served as the control group. All human cancer cell lines come from the American Type Culture Collection. The respective cell lines are cultured in RPMI-1640 medium with 10% (v/v) fetal calf serum, 100 U/ml penicillin and 100 µg/ml streptomycin, and incubated at 37° C. in 5% CO2 atmosphere.
(§2) In the present invention, the cytotoxicity tests are performed with MTT (3-(4,5-dimethyl-thiazol-2-yl)-2,5-diphenyl tetrazolium bromide) method. The five cancer cell lines and the normal cell line (MRC-5) are firstly incubated in a 96-well culture dish with concentrations of 5,000˜10,000 cells/well. In Day 2, the respective incubated cells are added with the withanolide compounds of the present invention and Doxorubicin and are incubated for additional 72 hours. Afterwards, the incubated cells are examined with the MTT method including steps of dissolving the incubated cells in DMSO, and determining the absorbance of each cell line to each compound by a microplate reader in 550 nm to evaluate the cytotoxicity of each compound to each cell line. […] The IC50 represents the concentration of the compound that is required for 50% inhibition of the cell growth, and Doxorubicin serves as the positive control group.

Hep G2 = test: MTT cytotoxicity test, Hep G2; format: cell-based, human; settings: 72 hours; for IC50 Hep G2: liver cancer cell line
Method: as §1, §2

A-549 = test: MTT cytotoxicity test, A-549; format: cell-based, human; settings: 72 hours; for IC50 A-549: lung cancer cell line
Method: as §1, §2

MRC-5 = test: MTT cytotoxicity test, normal lung cell line MRC-5; format: cell-based; settings: 72 hours; for IC50 MRC-5: normal human lung cell line
Method: as §1, §2

MCF-7 = test: MTT cytotoxicity test, MCF-7; format: cell-based, human; settings: 72 hours; for IC50 MCF-7: breast cancer cell line
Method: as §1, §2

Hep 3B = test: MTT cytotoxicity test, Hep 3B; format: cell-based, human; settings: liver cancer cell line, 72 hours
Method: as §1, §2

Row | Compound | IC50 MDA-MB-231 (MDA-MB-231) [µg/mL] | IC50 Hep G2 (Hep G2) [µg/mL] | IC50 A-549 (A-549) [µg/mL] | IC50 MRC-5 (MRC-5) [µg/mL] | IC50 MCF-7 (MCF-7) [µg/mL] | IC50 Hep 3B (Hep 3B) [µg/mL] | IC50 (MDA-MB-231; Homo sapiens, MDA-MB-231, breast cancer cell line) [µg/mL] | IC50 (Hep G2; Homo sapiens, HepG2, liver cancer cell line) [µg/mL] | IC50 (A-549; Homo sapiens, A549, lung cancer cell line) [µg/mL] | IC50 (MRC-5; MRC5, normal human lung cell line) [µg/mL] | IC50 (MCF-7; Homo sapiens, MCF7, breast cancer cell line) [µg/mL] | IC50 (Hep 3B; Homo sapiens, Hep3B) [µg/mL]
1 | CC1=C(C)C(=O)O[C@@H]([C@@H](C)[C@@]2(O)CC[C@H]3[C@@H]4C[C@H]5O[C@]56[C@@H](O)C=CC(=O)[C@]6(C)[C@H]4CC[C@@]32C)C1 [Compound 14, Tubocapsanolide F] | 0.99 (≈ 2.1 µM) | 0.64 (≈ 1.36 µM) | 0.88 (≈ 1.87 µM) | 0.81 (≈ 1.72 µM) | 1.98 (≈ 4.21 µM) | 0.80 (≈ 1.7 µM) | – | – | – | – | – | –
2 | COC1CC(=O)[C@]2(C)[C@H]3CC[C@]4(C)C([C@@](C)(O)[C@H]5CC(C)=C(C)C(=O)O5)=CC[C@H]4[C@@H]3C[C@H]3O[C@]32[C@H]1O (stereo partly shown) [Compound 18, Tubocapsanolide H] | 4.82 (≈ 9.63 µM) | 3.67 (≈ 7.33 µM) | 7.50 (≈ 15 µM) | 15.23 (≈ 30.4 µM) | 9.27 (≈ 18.5 µM) | 2.65 (≈ 5.29 µM) | – | – | – | – | – | –
3 | COc1cccc2c1C(=O)c1c(O)c3c(c(O)c1C2=O)C[C@@](O)(C(=O)CO)C[C@@H]3O[C@H]1C[C@H](N)[C@H](O)[C@H](C)O1 [doxorubicin, reference compound] | – | – | – | – | – | – | 0.19 (≈ 0.35 µM) | 0.46 (≈ 0.846 µM) | 0.42 (≈ 0.773 µM) | 0.77 (≈ 1.42 µM) | 0.34 (≈ 0.626 µM) | 0.45 (≈ 0.828 µM)
4 | CC1=C(C)C(=O)O[C@@H]([C@@H](C)[C@@]23O[C@@H]2C[C@H]2[C@@H]4C[C@H]5O[C@]56[C@@H](O)C=CC(=O)[C@]6(C)[C@H]4CC[C@@]23C)C1 [Compound 8, Tubocapsanolide A] | 0.22 (≈ 0.469 µM) | 0.86 (≈ 1.84 µM) | 0.47 (≈ 1 µM) | 0.73 (≈ 1.56 µM) | 1.47 (≈ 3.14 µM) | 0.42 (≈ 0.896 µM) | – | – | – | – | – | –
5 | CC1=C(C)C(=O)O[C@@H]([C@](C)(O)[C@@]23O[C@@H]2C[C@H]2[C@@H]4C[C@H]5O[C@]56[C@@H](O)C=CC(=O)[C@]6(C)[C@H]4CC[C@@]23C)C1 [Compound 9, 20-Hydroxytubocapsanolide A] | 0.99 (≈ 2.04 µM) | 0.73 (≈ 1.51 µM) | 1.42 (≈ 2.93 µM) | 1.36 (≈ 2.81 µM) | 1.77 (≈ 3.65 µM) | 0.99 (≈ 2.04 µM) | – | – | – | – | – | –
6 | COC1CC(=O)[C@]2(C)[C@H]3CC[C@@]4(C)[C@@H](CC[C@]4(O)[C@@](C)(O)[C@H]4CC(C)=C(C)C(=O)O4)[C@@H]3C[C@H]3O[C@]32[C@H]1O (stereo partly shown) [Compound 17, 20-Hydroxytubocapsanolide G] | 4.44 (≈ 8.56 µM) | 2.51 (≈ 4.84 µM) | 2.67 (≈ 5.15 µM) | 7.20 (≈ 13.9 µM) | 17.25 (≈ 33.3 µM) | 12.30 (≈ 23.7 µM) | – | – | – | – | – | –
7 | C[C@@]12CC([C@@]3(O)CC[C@H]4[C@@H]5C[C@H](O)[C@]6(O)[C@@H](O)C=CC(=O)[C@]6(C)[C@H]5CC[C@@]43C)[C@@H](C1)OC(=O)[C@]2(C)O (stereo partly shown) [Compound 20, Anomanolide B] | 0.70 (≈ 1.39 µM) | 0.97 (≈ 1.92 µM) | 1.49 (≈ 2.95 µM) | 0.20 (≈ 0.396 µM) | 4.84 (≈ 9.59 µM) | 3.17 (≈ 6.28 µM) | – | – | – | – | – | –
8 | CC1=C(CO)C(=O)O[C@@H]([C@@H](C)[C@H]2CC[C@H]3[C@@H]4C[C@H]5O[C@]56[C@@H](O)C=CC(=O)[C@]6(C)[C@H]4CC[C@]23C)C1 [withaferin A, reference compound] | 0.02 (≈ 0.0425 µM) | 0.06 (≈ 0.127 µM) | 0.02 (≈ 0.0425 µM) | 0.07 (≈ 0.149 µM) | 0.05 (≈ 0.106 µM) | 0.06 (≈ 0.127 µM) | – | – | – | – | – | –
9 | C[C@@]12CC([C@@]3(O)CC[C@H]4[C@@H]5C[C@H]6O[C@]67[C@@H](O)C=CC(=O)[C@]7(C)[C@H]5CC[C@@]43C)[C@@H](C1)OC(=O)[C@]2(C)O (stereo partly shown) [Compound 19, Anomanolide A] | 1.37 (≈ 2.82 µM) | 3.11 (≈ 6.39 µM) | 1.01 (≈ 2.08 µM) | 1.91 (≈ 3.93 µM) | 2.31 (≈ 4.75 µM) | 3.63 (≈ 7.46 µM) | – | – | – | – | – | –
10 | CC1=C(C)C(=O)O[C@@H]([C@@H](C)[C@@]2(C)C3=C(C[C@H]2O)[C@@H]2C[C@H](Cl)[C@]4(O)[C@@H](O)C=CC(=O)[C@]4(C)[C@H]2CC3)C1 [Compound 7, Tubocapsenolide G] | >20 | 19.12 (≈ 37.9 µM) | 19.94 (≈ 39.5 µM) | – | >20 | >20 | – | – | – | – | – | –
11 | CC1=C(C)[C@H](O)[C@H]([C@@H](C)[C@@]23O[C@@H]2C[C@H]2[C@@H]4C[C@H]5O[C@]56[C@@H](O)C=CC(=O)[C@]6(C)[C@H]4CC[C@@]23C)OC1=O [Compound 10, 23-Hydroxytubocapsanolide A] | 1.19 (≈ 2.46 µM) | 0.44 (≈ 0.908 µM) | 0.79 (≈ 1.63 µM) | 0.90 (≈ 1.86 µM) | 2.05 (≈ 4.23 µM) | 0.49 (≈ 1.01 µM) | – | – | – | – | – | –
12 | Tubocapsenolide D [Compound 4] | 6.55 | 4.57 | 4.24 | 4.24 | 6.77 | 2.30 | – | – | – | – | – | –
13 | C[C@@]12CC([C@@]3(O)[C@H](O)C[C@H]4[C@@H]5C[C@H]6O[C@]67[C@@H](O)C=CC(=O)[C@]7(C)[C@H]5CC[C@@]43C)[C@@H](C1)OC(=O)[C@]2(C)O (stereo partly shown) [Compound 21, Anomanolide C] | 1.58 (≈ 3.14 µM) | 4.41 (≈ 8.77 µM) | 2.80 (≈ 5.57 µM) | – | 8.01 (≈ 15.9 µM) | 1.85 (≈ 3.68 µM) | – | – | – | – | – | –
